Reference: US20230174561A1, “IONIC COMPOUND AND COMPOSITION THEREOF FOR HYDROPHOBIC PROTEIN EXTRACTION; AND ANTI-NONSPECIFIC PROTEIN ADSORPTION ZWITTERIONIC COMPOUND AND ELEMENT WITH ANTI-NONSPECIFIC PROTEIN ADSORPTION LAYER COMPRISING THE SAME” (priority 2021, published 2023)
Like-named read-outs stand apart in the source and are kept apart here.

Columns and labels:
gliadin = assay: Solubility of gliadin in ionic solutions (excess gliadin, Wheat/Gluten (Gliadin) ELISA Kit); type: physicochemical
Protocol: Gliadin is a hydrophobic protein present in gluten of wheat. Unless specifically stated, gliadin (G3375, Sigma-Aldrich; CAS No. 9007-90-3) or was used in the following tests.
First of all, ionic solutions of [DMePIm][OMs] with a concentration of 0.1 wt %, 1 wt %, 2 wt %, 5 wt % and 10 wt % in water were prepared. 3 grams (g) of gliadin (excess amount) was added into 10 mL of each [DMePIm][OMs] ionic solution, mixed homogenously and stood still for 5 min to give sample solutions for Test Example 1. All sample solutions were centrifuged at 8500 rpm for 3 min and filtered with a filter with 0.22 μm pore size. Water (0 wt %) was used as the control group. After that, Wheat/Gluten (Gliadin) ELISA Kit (Crystal chem, AOAC No. 011804) was used to determine the concentration and solubility of gliadin. Since the examination of the Wheat/Gluten (Gliadin) ELISA Kit is about 100 ppm, the gliadin concentration was determined by diluted sample solutions with at least 50-fold dilution by the corresponding ionic solution, in order to calculate the gliadin concentration of the sample solutions.
Similar with Test Example 1, except that 3 g of gliadin was added into 10 mL of 1 wt % ionic solution of [DMeIm][OMs](value “a” of Formula I is 0), [TMeIm][OMs] (a=1), [DMePrIm][OMs] (a=3), [DMePIm][OMs] (a=5), [DMeHpIm][OMs] (a=7), [DMeNnIm][OMs] (a=9) or [DMeDdIm][OMs] (a=12). […] (a=5), [DMeHpIm][OMs] (a=7), [DMeNnIm][OMs] ([…]) and [DMeDdIm][OMs] (a=12) ionic solutions, in which the corresponding groups attached on 3-position of the 1,2-dimethyl imidazolium had different carbon numbers (value “a” of Formula I) of 5, 7, 9 and 12, respectively. The [DMeDdIm][OMs]
Similar with Test Example 1, except that 3 g of gliadin was respectively added into 10 mL of 1 wt % ionic solutions of [DMePIm][Cl], [DMePIm][F], [DMePIm][OMs], [DMePIm][NO3], [DMePIm][H2PO4] and [DMePIm][HSO4].

[1] = tested on: Mouse N2a neuroblastoma cells (N2a cells); assay: Biocompatibility, XTT cell survival test; type: cell-based; conditions: 0.1, 1, 2, 5 and 10 wt % in medium, 6 h, FIG. 7
Protocol: Mouse N2a neuroblastoma cells (N2a cells) were cultured and maintained in DMEM High Glucose with L-glutamine and sodium pyruvate (DMEM-HPA-P10, Capricorn Scientific) containing 10% fetal bovine serum (FBS). The N2a cells were seeded in a 6-well plate with a density of 2×10^5 cells/well overnight. Then the medium was replaced with a testing DMEM High Glucose medium containing 0.1 wt %, 1 wt %, 2 wt %, 5 wt % and 10 wt % of [DMePIm][OMs] and the cells were incubated in an incubator (37° C., 5% CO2 humidified atmosphere) for 6 h. The testing medium was removed, the cells were washed, and new DMEM High Glucose containing 10% FBS was added and incubated for another 12 h. After that, the cells were subjected to XTT test (X12223, purchased from Thermo Fisher) for determining cell survival rate.

SMILES: CCCCC[n+]1ccn(C)c1C [[DMePIm][OMs], [1,2-dimethyl, 3-pentyl imidazolium][methanesulfonyl]]
- concentration of gliadin over time (gliadin; 1 wt % ionic solution, 1-30 min, FIG. 2): reached its maximum solubility shortly
- solubility of gliadin in ionic solutions with different cations (gliadin; 1 wt % ionic solution, FIG. 3): higher solubility
- solubility of gliadin in ionic solutions with different anions (gliadin; 1 wt % ionic solution, FIG. 4): greatest solubility
- survival rates of cells [1]: high

SMILES: CCCCCCCCC[n+]1ccn(C)c1C.CS(=O)(=O)[O-] [[DMeNnIm][OMs], [1,2-dimethyl, 3-nonyl imidazolium][methanesulfonyl]]
- solubility of gliadin in ionic solutions with different cations (gliadin): higher solubility

SMILES: CCCCCCCCCCCC[n+]1ccn(C)c1C.CS(=O)(=O)[O-] [[DMeDdIm][OMs], [1,2-dimethyl, 3-dodecyl imidazolium][methanesulfonyl]]
- viscosity of ionic solution (gliadin; 1 wt % ionic solution): higher viscosity

SMILES: CCCCCCC[n+]1ccn(C)c1C.CS(=O)(=O)[O-] [[DMeHpIm][OMs], [1,2-dimethyl, 3-heptyl imidazolium][methanesulfonyl]]
- solubility of gliadin in ionic solutions with different cations (gliadin): higher solubility
